Reference: the supplement of paper PMC4862054

How the values were obtained:
Settings in all cases: incubation time: 72 h
[1] = tested on: BT-474; experiment: normalised response (% of control), CellTox Green; higher = less cell death (100 = DMSO, 0 = benzethonium chloride kill control)
In short: (§1)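 Breast cancer cell lines, seeded at 20 µl suspension per well, were incubated for 72 h in 384-well plates containing compound at 5 concentrations. These concentrations rose in 10-fold steps over a 10,000-fold range set for each compound. CellTox Green fluorescence (485/520 nm) was read, then CellTiter-Glo luminescence after 10 min at room temperature, and each plate was normalised to 0.1 % DMSO (100) and a positive kill control (0). Values are normalised signals, each at one concentration.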

[2] = tested on: BT-549; experiment: as above
In short: as §1

[3] = tested on: CAL-120; experiment: as above
In short: as §1

[4] = tested on: CAL-148; experiment: as above
In short: as §1

[5] = tested on: CAL-51; experiment: as above
In short: as §1

[6] = tested on: CAL-85-1; experiment: as above
In short: as §1

[7] = tested on: DU-4475; experiment: as above
In short: as §1

[8] = tested on: HCC1143; experiment: as above
In short: as §1

[9] = tested on: HCC1599; experiment: as above
In short: as §1

[10] = tested on: HCC1937; experiment: as above
In short: as §1

[11] = tested on: HDQ-P1; experiment: as above
In short: as §1

[12] = tested on: Hs578T; experiment: as above
In short: as §1

[13] = tested on: MCF-10A; experiment: as above
In short: as §1

[14] = tested on: MDA-MB-231; experiment: as above
In short: as §1

[15] = tested on: MDA-MB-436; experiment: as above
In short: as §1

[16] = tested on: MDA-MB-453; experiment: as above
In short: as §1

[17] = tested on: MDA-MB-468; experiment: as above
In short: as §1

[18] = tested on: MFM-223; experiment: as above
In short: as §1

[19] = tested on: BT-474; experiment: normalised response (% of control), CellTiter-Glo; higher = more viable cells (100 = DMSO, 0 = benzethonium chloride kill control)
In short: as §1

[20] = tested on: BT-549; experiment: as above
In short: as §1

[21] = tested on: CAL-120; experiment: as above
In short: as §1

[22] = tested on: CAL-148; experiment: as above
In short: as §1

[23] = tested on: CAL-51; experiment: as above
In short: as §1

[24] = tested on: CAL-85-1; experiment: as above
In short: as §1

[25] = tested on: DU-4475; experiment: as above
In short: as §1

[26] = tested on: HCC1143; experiment: as above
In short: as §1

[27] = tested on: HCC1599; experiment: as above
In short: as §1

[28] = tested on: HCC1937; experiment: as above
In short: as §1

[29] = tested on: HDQ-P1; experiment: as above
In short: as §1

[30] = tested on: Hs578T; experiment: as above
In short: as §1

[31] = tested on: MCF-10A; experiment: as above
In short: as §1

[32] = tested on: MDA-MB-231; experiment: as above
In short: as §1

[33] = tested on: MDA-MB-436; experiment: as above
In short: as §1

[34] = tested on: MDA-MB-453; experiment: as above
In short: as §1

[35] = tested on: MDA-MB-468; experiment: as above
In short: as §1

[36] = tested on: MFM-223; experiment: as above
In short: as §1

[37] = tested on: SK-BR-3; experiment: as above
In short: as §1

Row | SMILES | normalised response [1] | normalised response [2] | normalised response [3] | normalised response [4] | normalised response [5] | normalised response [6] | normalised response [7] | normalised response [8] | normalised response [9] | normalised response [10] | normalised response [11] | normalised response [12] | normalised response [13] | normalised response [14] | normalised response [15] | normalised response [16] | normalised response [17] | normalised response [18] | normalised response [19] | normalised response [20] | normalised response [21] | normalised response [22] | normalised response [23] | normalised response [24] | normalised response [25] | normalised response [26] | normalised response [27] | normalised response [28] | normalised response [29] | normalised response [30] | normalised response [31] | normalised response [32] | normalised response [33] | normalised response [34] | normalised response [35] | normalised response [36] | normalised response [37]
1 | C[C@@H]1CCN(C(=O)CC#N)C[C@@H]1N(C)c1ncnc2[nH]ccc12 [Tofacitinib] (50 nM) | 103% | 94.2% | 99.7% | 90.6% | 113% | 99.7% | 102% | 104% | 116% | 123% | 114% | 93.4% | 105% | 104% | 97.8% | 103% | 127% | 107% | 102% | 104% | 99.8% | 114% | 88.1% | 109% | 106% | 106% | 105% | 96.5% | 104% | 109% | 101% | 104% | 98.7% | 102% | 110% | 110% | 104%
2 | FC(F)c1nc2ccccc2n1-c1nc(N2CCOCC2)nc(N2CCOCC2)n1 [ZSTK474] (100 nM) | 102% | 111% | 102% | 100% | 102% | 108% | 105% | 115% | 101% | 64.3% | 101% | 102% | 85% | 110% | 101% | 85.6% | 97.3% | 102% | 85.3% | 80.4% | 101% | 94.7% | 92.6% | 99% | 97% | 99.9% | 98% | 87.7% | 83.4% | 92.4% | 93% | 91.1% | 88.5% | 86.8% | 96.9% | 97% | 72.9%
